The record followed here is patent US20060106098A1, “Andrographolide and its derivatives as TNF-alpha antagonists” (Advanced Gene Technology, Corp., priority 2004, published 2006).

The target of one data set is T1, TNFα (Homo sapiens, UniProt P01375).
T1 construct: purchased
Kind of data set: In vitro L929 cell proliferation/cytotoxicity assay, TNFα activity inhibition. Format: cell-based. The note with it: L929 cell line, TNFα 0.1 ng/ml, Act D 2 μg/ml; read-out: IC50 as TNFα antagonist. The protocol: (§1) In vitro L929 cell proliferation/cytotoxicity assay was performed on microtiter plates. L929 cells were cultured in Eagle's Minimal Essential Medium (EMEM) containing 10% bovine serum, 1% P/S and 1% non-essential amino acid. Confluent L929 cells were washed with 2 ml PBS solution and then trypsinized, followed by resuspending in complete medium. Two hundred μl cell suspension was aspirated for counting the cell density and the other suspension was centrifuged at 1500 rpm for 5 min. The supernatant was removed and the complete medium was added to dilute cells to a final concentration of 1.5×10^5 cells/ml. One hundred μl of cell suspension was added to each well in 96-well flat-bottomed microtiter plates and incubated for 24 hrs in 5% CO2 atmosphere at 37° C.
The chemical was resuspended in 1×PBS and sterilized with 0.22 μm filters. […]
(§2) The same samples as those for TNFα activity assay were added to the 96-well plate with the medium containing Act D to give the final concentration of Act D 2 μg/ml. […] 50 μl XTT (2,3-bis(2-methoxy-4-nitro-5-sulfophenyl)-5-[((phenylamino)carbonyl]-2H-tetra -zolium hydroxide) mixture was added to each well, and incubated for 4 hrs. Read with ELISA reader at O.D. 490/630 nm. Calculation of the TNFα Activity Inhabitation and Cytotoxicity [formula] [formula] 8. The Effect of the Methanolic Extract of A. Paniculata on L929 Cell Proliferation/Cytotoxicity Assay

Data set [1] has as its system collagen-induced arthritis. Kind of data set: Anti-inflammatory effect on rats with collagen-induced arthritis model. Format: in vivo, SD rats. The note with it: for histopathological slice of joint: rat with CIA.
The subject of another data set is L929 cells. Kind of data set: Cytotoxicity on L929 cells (XTT, with Act D, without TNFα). The note with it: at the IC50 concentration (60 μM). Format: cell-based. The protocol:
as §1, §2
A general note: Tetrazolium assays rely on reduction of a dye to a coloured formazan, in cell work by metabolically active cells.

The mark [2] stands for this setting: CIA rats, 3rd day after treatment stopped (T4).
Setting [3] is: CIA rats, 7th day after treatment stopped (T5).

Molecules are shown by their SMILES.

T1 sequence (P01375 77-233 limits assumed): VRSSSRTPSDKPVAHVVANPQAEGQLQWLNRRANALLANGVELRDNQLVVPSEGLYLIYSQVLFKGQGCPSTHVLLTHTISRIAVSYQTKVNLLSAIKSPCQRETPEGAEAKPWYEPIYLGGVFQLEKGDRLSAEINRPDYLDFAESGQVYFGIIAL

Turning to `C=C1CC[C@@H]2[C@](C)(CO)[C@H](O)CC[C@@]2(C)[C@@H]1C/C=C1/C(=O)OC[C@H]1O` [andrographolide, Andrographolide], the IC50 – broadly, the point on the concentration scale where inhibition reaches its midpoint – at TNFα was determined as 60 µM. Moreover, the “decreased percentage of edema” value was found to be 61.43% in data set [1] (setting [2]) and 50.24% in data set [1] (setting [3]). Moreover, in data set [1] (CIA rats, during the 7-day treatment (T3, 6th day of treatment)), the “decreased percentage of edema volume of hind paws” value amounted to 48.1%. In addition, the “histopathological slice of joint” value in data set [1] (treated IP) was “Proliferation of synovial lining cell and infiltration of erythrocytes and some lymphocytes were observed”; in data set [1] (treated by external application), “Proliferation of synovial lining cell and loosely connective tissues appeared”; in data set [1] (treated by oral), “Proliferation of synovial lining cell and infiltration of lymphocytes were found”. For the same molecule, the cytotoxicity result in the data set with L929 cells is “No cytotocixity was found”.

Turning to `C[C@@H]1C[C@H]2[C@@H]3CCC4=CC(=O)C=C[C@]4(C)[C@@]3(F)[C@@H](O)C[C@]2(C)[C@@]1(O)C(=O)CO` [dexamethasone, Dexamethasone, reference compound], the “decreased percentage of edema” value in data set [1] (setting [2]) was determined as 28.21%; in data set [1] (setting [3]), 29.97%.
